The CheMixHub ionic liquid set
± gives the uncertainty stated by the source.

Assay: xn = mol fraction of the nth substance listed

CCCCCC[n+]1ccn(C)c1.O=S(=O)([N-]S(=O)(=O)C(F)(F)F)C(F)(F)F + C1CCOC1
298.15 K, 100 kPa
Conditions | electrical conductivity [S/m]
x1 = 0.0649 | 0.9 ± 0.1
x1 = 0.09702 | 1.1 ± 0.1
x1 = 0.1393 | 1 ± 0.1
x1 = 0.194 | 1.3 ± 0.1
x1 = 0.2742 | 0.9 ± 0.1

CCCCCCCC(=O)[O-].c1c[nH+]c[nH]1 + CC#N
101.3 kPa
Conditions | viscosity [mPa·s]
293.15 K, x2 = 0.298 | 37.82 ± 0.87
293.15 K, x2 = 0.499 | 17.94 ± 0.42
293.15 K, x2 = 0.5995 | 10.6 ± 0.27
293.15 K, x2 = 0.8996 | 1.201 ± 0.039
303.15 K, x2 = 0 | 56.48 ± 0.89
303.15 K, x2 = 0.1044 | 45.4 ± 1
303.15 K, x2 = 0.5995 | 9.6 ± 0.24
308.15 K, x2 = 0.499 | 12.8 ± 0.31
318.15 K, x2 = 0.298 | 18.21 ± 0.43
318.15 K, x2 = 0.4005 | 14.1 ± 0.34
323.15 K, x2 = 0.499 | 10.2 ± 0.25
323.15 K, x2 = 0.5995 | 7.6 ± 0.2

CCCCCC[n+]1ccn(C)c1.O=S(=O)([N-]S(=O)(=O)C(F)(F)F)C(F)(F)F + CC#N
298.15 K, 100 kPa
Conditions | electrical conductivity [S/m]
x1 = 0.03801 | 3.3 ± 0.3
x1 = 0.0581 | 3.7 ± 0.4
x1 = 0.08404 | 4 ± 0.4
x1 = 0.1205 | 3.6 ± 0.4
x1 = 0.1763 | 2.8 ± 0.3

CCCCCC[n+]1ccn(C)c1.[Br-] + CC#N
viscosity [mPa·s], 101 kPa
Conditions | 288.15 K | 298.15 K | 308.15 K | 318.15 K
x1 = 0.004174 | 0.403 ± 0.009 | 0.364 ± 0.008 | 0.333 ± 0.007 | 0.306 ± 0.007
x1 = 0.008131 | 0.424 ± 0.009 | 0.383 ± 0.008 | 0.35 ± 0.007 | 0.322 ± 0.007
x1 = 0.01172 | 0.424 ± 0.009 | 0.389 ± 0.008 | 0.371 ± 0.008 | 0.342 ± 0.007

CCCCCC[n+]1ccn(C)c1.[Br-] + CC(=O)Oc1ccccc1C(=O)O + CC#N
viscosity [mPa·s], 101 kPa
Conditions | 288.15 K | 298.15 K | 308.15 K | 318.15 K
x2 = 0, x1 = 0.004174 | 0.403 ± 0.009 | 0.364 ± 0.008 | 0.333 ± 0.007 | 0.306 ± 0.007
x2 = 0, x1 = 0.008131 | 0.424 ± 0.009 | 0.383 ± 0.008 | 0.35 ± 0.008 | 0.322 ± 0.007
x2 = 0, x1 = 0.01172 | 0.424 ± 0.009 | 0.389 ± 0.008 | 0.371 ± 0.008 | 0.342 ± 0.007

OC[C@H]1O[C@@H](O[C@H]2[C@H](O)[C@@H](O)C(O)O[C@@H]2CO)[C@H](O)[C@@H](O)[C@@H]1O (stereo not given in full) + CC(=O)[O-].CC[n+]1ccn(C)c1
100 kPa
Conditions | viscosity [mPa·s]
292.4 K, x1 = 0.0255 | 339 ± 25
302.1 K, x1 = 0.08067 | 921 ± 78
312.5 K, x1 = 0.004998 | 61 ± 4
312.5 K, x1 = 0.01515 | 73 ± 5
322.6 K, x1 = 0.01515 | 45 ± 3
322.6 K, x1 = 0.08067 | 207 ± 14
332.2 K, x1 = 0.0255 | 39 ± 2
332.2 K, x1 = 0.08067 | 123 ± 8
342.5 K, x1 = 0.004998 | 20 ± 1

Cn1ccnc1 + CC(=O)[O-].CC[n+]1ccn(C)c1 + CCOC(C)=O
298.15 K, 101 kPa
Conditions | electrical conductivity [S/m] | viscosity [mPa·s]
x2 = 0, x1 = 0.5 | – | 0.93 ± 0.02
x2 = 0.09996, x1 = 0.45 | 0.259 ± 0.005 | 1.32 ± 0.03
x2 = 0.2001, x1 = 0.4 | 0.444 ± 0.009 | 2.05 ± 0.05
x2 = 0.3, x1 = 0.35 | 0.61 ± 0.012 | 3.17 ± 0.07
x2 = 0.3995, x1 = 0.3003 | 0.724 ± 0.014 | 5.06 ± 0.11
x2 = 0.5003, x1 = 0.2498 | 0.795 ± 0.016 | 7.59 ± 0.17
x2 = 0.598, x1 = 0.201 | 0.776 ± 0.016 | 12.8 ± 0.3
x2 = 0.7028, x1 = 0.1486 | 0.697 ± 0.014 | 21.4 ± 0.5
x2 = 0.8002, x1 = 0.09992 | 0.578 ± 0.012 | 37.1 ± 1
x2 = 0.8978, x1 = 0.0511 | 0.452 ± 0.009 | 67.4 ± 2.2

CC(=O)[O-].C[NH+]1CCOCC1 + CC(=O)[O-].Cn1cc[nH+]c1
Conditions | electrical conductivity [S/m]
298.15 K, 100 kPa, x2 = 0.71 | 0.274 ± 0.0055

CCCCCC[n+]1ccn(C)c1.O=S(=O)([N-]S(=O)(=O)C(F)(F)F)C(F)(F)F + CC(C)=O
298.15 K, 100 kPa
Conditions | electrical conductivity [S/m]
x1 = 0.0527 | 2.6 ± 0.3
x1 = 0.07996 | 3.1 ± 0.3
x1 = 0.1149 | 3.1 ± 0.3
x1 = 0.163 | 2.4 ± 0.2
x1 = 0.2325 | 2 ± 0.2

CCCCCC[n+]1ccn(C)c1.O=S(=O)([N-]S(=O)(=O)C(F)(F)F)C(F)(F)F + CC(C)O
viscosity [mPa·s], 100 kPa
Conditions | x2 = 0 | x2 = 0.0845 | x2 = 0.2111 | x2 = 0.3269 | x2 = 0.4529 | x2 = 0.5435 | x2 = 0.637 | x2 = 0.7321 | x2 = 0.8285 | x2 = 0.9173
293.15 K | 85.2 ± 8.6 | 73.5 ± 7.4 | 57 ± 5.7 | 42.3 ± 4.3 | 29.9 ± 3 | 22.4 ± 2.2 | 16.2 ± 1.6 | 12 ± 1.2 | 8.01 ± 0.81 | 4.5 ± 0.46
298.15 K | 65.9 ± 6.6 | 56.6 ± 5.7 | 44.5 ± 4.5 | 34.1 ± 3.4 | 24.2 ± 2.4 | 18.8 ± 1.9 | 13.6 ± 1.4 | 9.86 ± 0.99 | 6.52 ± 0.66 | 3.73 ± 0.38
303.15 K | 51.9 ± 5.2 | 45 ± 4.5 | 36.5 ± 3.7 | 28.6 ± 2.9 | 20.2 ± 2 | 15.6 ± 1.6 | 11.4 ± 1.1 | 8.26 ± 0.83 | 5.51 ± 0.56 | 3.24 ± 0.33
308.15 K | 41.4 ± 4.2 | 36 ± 3.6 | 30.5 ± 3.1 | 24.1 ± 2.4 | 17.2 ± 1.7 | 13.2 ± 1.3 | 9.62 ± 0.97 | 7.11 ± 0.71 | 4.67 ± 0.47 | 2.82 ± 0.29
313.15 K | 33.8 ± 3.4 | 30.5 ± 3.1 | 25.6 ± 2.6 | 20.6 ± 2.1 | 14.9 ± 1.5 | 11.3 ± 1.1 | 8.31 ± 0.84 | 6.06 ± 0.61 | 3.98 ± 0.4 | 2.41 ± 0.24

CC[n+]1ccn(CCOC)c1.O=S(=O)([O-])C(F)(F)F + CC(C)O
viscosity [mPa·s], 101 kPa
Conditions | x1 = 0.0997 | x1 = 0.2004 | x1 = 0.3004 | x1 = 0.4003 | x1 = 0.5004 | x1 = 0.601 | x1 = 0.7 | x1 = 0.8 | x1 = 0.9 | x1 = 1
288.15 K | 4.72 ± 0.11 | 7.33 ± 0.2 | 10.86 ± 0.36 | 16.19 ± 0.57 | 21.8 ± 1 | 33.6 ± 1.3 | 47.3 ± 1.4 | 64.2 ± 1.8 | 85.2 ± 2.6 | 121 ± 4.5
293.15 K | 4.047 ± 0.094 | 6.23 ± 0.17 | 9.17 ± 0.3 | 13.53 ± 0.47 | 18.15 ± 0.81 | 27.6 ± 1 | 38 ± 1.1 | 51.3 ± 1.3 | 65.2 ± 1.7 | 92.5 ± 2.9
298.15 K | 3.489 ± 0.081 | 5.36 ± 0.14 | 7.83 ± 0.25 | 11.45 ± 0.39 | 15.16 ± 0.67 | 22.88 ± 0.83 | 31.09 ± 0.93 | 41.4 ± 1.1 | 52.2 ± 1.3 | 72.5 ± 2
303.15 K | 3.03 ± 0.071 | 4.64 ± 0.12 | 6.75 ± 0.21 | 9.8 ± 0.33 | 12.85 ± 0.55 | 19.27 ± 0.68 | 25.81 ± 0.76 | 33.89 ± 0.9 | 42.7 ± 1.1 | 57.9 ± 1.5
308.15 K | 2.654 ± 0.062 | 4.06 ± 0.11 | 5.87 ± 0.18 | 8.47 ± 0.28 | 11.07 ± 0.48 | 16.64 ± 0.57 | 21.71 ± 0.62 | 28.27 ± 0.75 | 35.58 ± 0.92 | 47.3 ± 1.2
313.15 K | 2.336 ± 0.055 | 3.599 ± 0.096 | 5.15 ± 0.16 | 7.38 ± 0.24 | 9.64 ± 0.41 | 14.32 ± 0.49 | 18.62 ± 0.53 | 23.79 ± 0.63 | 30.09 ± 0.77 | 39 ± 1
318.15 K | 2.068 ± 0.048 | 3.192 ± 0.085 | 4.55 ± 0.14 | 6.49 ± 0.21 | 8.54 ± 0.35 | 12.42 ± 0.42 | 16.2 ± 0.45 | 20.22 ± 0.53 | 25.83 ± 0.66 | 32.59 ± 0.85
